{"source": "ChEMBL document CHEMBL1201862", "about": "“PubChem BioAssay data set” (2004)", "test_in_all_cases": "growth of human tumour cells (NCI), 48 h", "key": {"[1]": {"test_system": "786-0"}, "[2]": {"test_system": "A498"}, "[3]": {"test_system": "A549"}, "[4]": {"test_system": "ACHN"}, "[5]": {"test_system": "BT-549"}, "[6]": {"test_system": "CCRF-CEM"}, "[7]": {"test_system": "COLO 205"}, "[8]": {"test_system": "DU-145"}, "[9]": {"test_system": "EKVX"}, "[10]": {"test_system": "HCC 2998"}, "[11]": {"test_system": "HCT-116"}, "[12]": {"test_system": "HCT-15"}, "[13]": {"test_system": "HL-60"}, "[14]": {"test_system": "HOP-62"}, "[15]": {"test_system": "HOP-92"}, "[16]": {"test_system": "HT-29"}, "[17]": {"test_system": "IGROV-1"}, "[18]": {"test_system": "K562"}, "[19]": {"test_system": "M14"}, "[20]": {"test_system": "MCF7"}, "[21]": {"test_system": "MDA-MB-231"}, "[22]": {"test_system": "MDA-MB-435"}, "[23]": {"test_system": "MDA-N"}, "[24]": {"test_system": "MOLT-4"}, "[25]": {"test_system": "Malme-3M"}, "[26]": {"test_system": "NCI-H226"}, "[27]": {"test_system": "NCI-H23"}, "[28]": {"test_system": "NCI-H460"}, "[29]": {"test_system": "NCI/ADR-RES"}, "[30]": {"test_system": "OVCAR-3"}, "[31]": {"test_system": "OVCAR-4"}, "[32]": {"test_system": "OVCAR-5"}, "[33]": {"test_system": "OVCAR-8"}, "[34]": {"test_system": "PC-3"}, "[35]": {"test_system": "RPMI-8226"}, "[36]": {"test_system": "SF-268"}, "[37]": {"test_system": "SF-295"}, "[38]": {"test_system": "SK-MEL-28"}, "[39]": {"test_system": "SK-MEL-5"}, "[40]": {"test_system": "SK-OV-3"}, "[41]": {"test_system": "SN12C"}, "[42]": {"test_system": "SNB-19"}, "[43]": {"test_system": "SNB-75"}, "[44]": {"test_system": "SR"}, "[45]": {"test_system": "SW-620"}, "[46]": {"test_system": "T47D"}, "[47]": {"test_system": "TK-10"}, "[48]": {"test_system": "U-251"}, "[49]": {"test_system": "UACC-257"}, "[50]": {"test_system": "UACC-62"}, "[51]": {"test_system": "UO-31"}, "[52]": {"test_system": "CAKI-1"}, "[53]": {"test_system": "Hs-578T"}, "[54]": {"test_system": "KM12"}, "[55]": {"test_system": "LOX IMVI"}, "[56]": {"test_system": "NCI-H522"}, "[57]": {"test_system": "RXF 393"}, "[58]": {"test_system": "SF-539"}, "[59]": {"test_system": "SK-MEL-2"}}, "note": "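Protocol summary: plate cells (96-well), add compound at 5 concentrations, incubate 48 h, interpolate endpoints linearly. GI50 marks 50% less growth.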 Active and inactive are the calls of the source. Cut-off read from the data, not from the text of the source: active = GI50 up to about 1.1 µM and inactive = higher.", "data": [{"smiles": "CCCCC(O)(c1ccccc1)C(O)(c1ccccc1)c1c(F)c(F)c(F)c(F)c1F", "note": "(stereo unspecified)", "values": [{"measurement": "GI50", "setting": "[1]", "value": "20.1 µM (inactive)"}, {"measurement": "GI50", "setting": "[2]", "value": "25.5 µM (inactive)"}, {"measurement": "GI50", "setting": "[3]", "value": "28.4 µM (inactive)"}, {"measurement": "GI50", "setting": "[4]", "value": "19.6 µM (inactive)"}, {"measurement": "GI50", "setting": "[5]", "value": "33.3 µM (inactive)"}, {"measurement": "GI50", "setting": "[6]", "value": "25.4 µM (inactive)"}, {"measurement": "GI50", "setting": "[7]", "value": "> 10 µM (inactive)"}, {"measurement": "GI50", "setting": "[8]", "value": "48.1 µM (inactive)"}, {"measurement": "GI50", "setting": "[9]", "value": "17.9 µM (inactive)"}, {"measurement": "GI50", "setting": "[10]", "value": "15.7 µM (inactive)"}, {"measurement": "GI50", "setting": "[11]", "value": "18.1 µM (inactive)"}, {"measurement": "GI50", "setting": "[12]", "value": 13.5, "unit": "µM"}, {"measurement": "GI50", "setting": "[13]", "value": "21.3 µM (inactive)"}, {"measurement": "GI50", "setting": "[14]", "value": "17.5 µM (inactive)"}, {"measurement": "GI50", "setting": "[15]", "value": "17.4 µM (inactive)"}, {"measurement": "GI50", "setting": "[16]", "value": "14.1 µM (inactive)"}, {"measurement": "GI50", "setting": "[17]", "value": "33.3 µM (inactive)"}, {"measurement": "GI50", "setting": "[18]", "value": "27.4 µM (inactive)"}, {"measurement": "GI50", "setting": "[19]", "value": "30.3 µM (inactive)"}, {"measurement": "GI50", "setting": "[20]", "value": "20.3 µM (inactive)"}, {"measurement": "GI50", "setting": "[21]", "value": "16 µM (inactive)"}, {"measurement": "GI50", "setting": "[22]", "value": "31.8 µM (inactive)"}, {"measurement": "GI50", "setting": "[23]", "value": "17.9 µM (inactive)"}, {"measurement": "GI50", "setting": "[24]", "value": "16.8 µM (inactive)"}, {"measurement": "GI50", "setting": "[25]", "value": "16.7 µM (inactive)"}, {"measurement": "GI50", "setting": "[26]", "value": "26 µM (inactive)"}, {"measurement": "GI50", "setting": "[27]", "value": "29 µM (inactive)"}, {"measurement": "GI50", "setting": "[28]", "value": "23.7 µM (inactive)"}, {"measurement": "GI50", "setting": "[29]", "value": "19.5 µM (inactive)"}, {"measurement": "GI50", "setting": "[30]", "value": "17.4 µM (inactive)"}, {"measurement": "GI50", "setting": "[31]", "value": "44.4 µM (inactive)"}, {"measurement": "GI50", "setting": "[32]", "value": "18.3 µM (inactive)"}, {"measurement": "GI50", "setting": "[33]", "value": "22.1 µM (inactive)"}, {"measurement": "GI50", "setting": "[34]", "value": "19.1 µM (inactive)"}, {"measurement": "GI50", "setting": "[35]", "value": "18.2 µM (inactive)"}, {"measurement": "GI50", "setting": "[36]", "value": "20 µM (inactive)"}, {"measurement": "GI50", "setting": "[37]", "value": "> 10 µM (inactive)"}, {"measurement": "GI50", "setting": "[38]", "value": "27 µM (inactive)"}, {"measurement": "GI50", "setting": "[39]", "value": "18.4 µM (inactive)"}, {"measurement": "GI50", "setting": "[40]", "value": "21.5 µM (inactive)"}, {"measurement": "GI50", "setting": "[41]", "value": "17.1 µM (inactive)"}, {"measurement": "GI50", "setting": "[42]", "value": "41.8 µM (inactive)"}, {"measurement": "GI50", "setting": "[43]", "value": "37.2 µM (inactive)"}, {"measurement": "GI50", "setting": "[44]", "value": "25.3 µM (inactive)"}, {"measurement": "GI50", "setting": "[45]", "value": "25.2 µM (inactive)"}, {"measurement": "GI50", "setting": "[46]", "value": "35.4 µM (inactive)"}, {"measurement": "GI50", "setting": "[47]", "value": "26.4 µM (inactive)"}, {"measurement": "GI50", "setting": "[48]", "value": "17.3 µM (inactive)"}, {"measurement": "GI50", "setting": "[49]", "value": "18.2 µM (inactive)"}, {"measurement": "GI50", "setting": "[50]", "value": "17.4 µM (inactive)"}, {"measurement": "GI50", "setting": "[51]", "value": "30.3 µM (inactive)"}]}, {"smiles": "O=P(O)(O)c1ccc(-c2ccc(I)cc2)cc1", "values": [{"measurement": "GI50", "setting": "[1]", "value": "> 100 µM (inactive)"}, {"measurement": "GI50", "setting": "[3]", "value": "> 100 µM (inactive)"}, {"measurement": "GI50", "setting": "[4]", "value": "> 100 µM (inactive)"}, {"measurement": "GI50", "setting": "[5]", "value": "> 100 µM (inactive)"}, {"measurement": "GI50", "setting": "[52]", "value": "> 100 µM (inactive)"}, {"measurement": "GI50", "setting": "[6]", "value": "> 100 µM (inactive)"}, {"measurement": "GI50", "setting": "[7]", "value": "> 100 µM (inactive)"}, {"measurement": "GI50", "setting": "[8]", "value": "> 100 µM (inactive)"}, {"measurement": "GI50", "setting": "[9]", "value": "> 100 µM (inactive)"}, {"measurement": "GI50", "setting": "[10]", "value": "> 100 µM (inactive)"}, {"measurement": "GI50", "setting": "[11]", "value": "> 100 µM (inactive)"}, {"measurement": "GI50", "setting": "[12]", "value": "> 100", "unit": "µM"}, {"measurement": "GI50", "setting": "[13]", "value": "> 100 µM (inactive)"}, {"measurement": "GI50", "setting": "[14]", "value": "> 100 µM (inactive)"}, {"measurement": "GI50", "setting": "[16]", "value": "> 100 µM (inactive)"}, {"measurement": "GI50", "setting": "[53]", "value": "> 100 µM (inactive)"}, {"measurement": "GI50", "setting": "[17]", "value": "> 100 µM (inactive)"}, {"measurement": "GI50", "setting": "[18]", "value": "> 100 µM (inactive)"}, {"measurement": "GI50", "setting": "[54]", "value": "> 100 µM (inactive)"}, {"measurement": "GI50", "setting": "[55]", "value": "> 100 µM (inactive)"}, {"measurement": "GI50", "setting": "[19]", "value": "> 100 µM (inactive)"}, {"measurement": "GI50", "setting": "[20]", "value": "> 100 µM (inactive)"}, {"measurement": "GI50", "setting": "[21]", "value": "> 100 µM (inactive)"}, {"measurement": "GI50", "setting": "[23]", "value": "> 100 µM (inactive)"}, {"measurement": "GI50", "setting": "[24]", "value": "> 100 µM (inactive)"}, {"measurement": "GI50", "setting": "[25]", "value": "> 100 µM (inactive)"}, {"measurement": "GI50", "setting": "[26]", "value": "> 100 µM (inactive)"}, {"measurement": "GI50", "setting": "[27]", "value": "> 100 µM (inactive)"}, {"measurement": "GI50", "setting": "[28]", "value": "> 100 µM (inactive)"}, {"measurement": "GI50", "setting": "[56]", "value": "> 100 µM (inactive)"}, {"measurement": "GI50", "setting": "[29]", "value": "> 100 µM (inactive)"}, {"measurement": "GI50", "setting": "[31]", "value": "> 100 µM (inactive)"}, {"measurement": "GI50", "setting": "[32]", "value": "> 100 µM (inactive)"}, {"measurement": "GI50", "setting": "[33]", "value": "> 100 µM (inactive)"}, {"measurement": "GI50", "setting": "[34]", "value": "> 100 µM (inactive)"}, {"measurement": "GI50", "setting": "[35]", "value": "> 100 µM (inactive)"}, {"measurement": "GI50", "setting": "[57]", "value": "13.5 µM (inactive)"}, {"measurement": "GI50", "setting": "[36]", "value": "> 100 µM (inactive)"}, {"measurement": "GI50", "setting": "[37]", "value": "> 10 µM (inactive)"}, {"measurement": "GI50", "setting": "[58]", "value": "> 100 µM (inactive)"}, {"measurement": "GI50", "setting": "[38]", "value": "> 100 µM (inactive)"}, {"measurement": "GI50", "setting": "[59]", "value": "> 100 µM (inactive)"}, {"measurement": "GI50", "setting": "[39]", "value": "> 100 µM (inactive)"}, {"measurement": "GI50", "setting": "[40]", "value": "> 100 µM (inactive)"}, {"measurement": "GI50", "setting": "[41]", "value": "> 100 µM (inactive)"}, {"measurement": "GI50", "setting": "[42]", "value": "> 100 µM (inactive)"}, {"measurement": "GI50", "setting": "[43]", "value": "65 µM (inactive)"}, {"measurement": "GI50", "setting": "[44]", "value": "> 100 µM (inactive)"}, {"measurement": "GI50", "setting": "[45]", "value": "> 100 µM (inactive)"}, {"measurement": "GI50", "setting": "[46]", "value": "> 100 µM (inactive)"}, {"measurement": "GI50", "setting": "[47]", "value": "> 100 µM (inactive)"}, {"measurement": "GI50", "setting": "[48]", "value": "> 100 µM (inactive)"}, {"measurement": "GI50", "setting": "[49]", "value": "> 100 µM (inactive)"}, {"measurement": "GI50", "setting": "[50]", "value": "> 100 µM (inactive)"}, {"measurement": "GI50", "setting": "[51]", "value": "> 100 µM (inactive)"}]}]}
